In the supplement of paper PMC10307832 one finds relative viability data, which are given here for eight cell lines.

What all share (assay): relative viability (nuclei count vs DMSO), 5 days (fraction); higher = more cells survive
Compound in the assay “GW-2580 + Luminespib”: COC1=CC=C(C=C1)COC2=C(C=C(C=C2)CC3=CN=C(N=C3N)N)OC [GW-2580] + CCNC(=O)c1noc(-c2cc(C(C)C)c(O)cc2O)c1-c1ccc(CN2CCOCC2)cc1 [Luminespib] (partner 0.01 µM)
The method in brief: (§1)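 For relative viability, nuclei counts in treated wells were divided by those in vehicle wells. Lung cancer cell lines had been pin-tool dosed in 1536-well plates the day after seeding and cultured for 5 days, then fixed and stained in one step (final 0.05% Triton X-100, 1% formaldehyde, 1 ug/ml Hoechst) and imaged at 4×. Doses were one drug alone or a fixed anchor-drug dose plus five library-drug doses (not always all listed) in √10 steps, and values are duplicate-plate medians.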

Compound in the assay “GW-2580 + Foretinib”: COC1=CC=C(C=C1)COC2=C(C=C(C=C2)CC3=CN=C(N=C3N)N)OC [GW-2580] + COc1cc2c(Oc3ccc(NC(=O)C4(C(=O)Nc5ccc(F)cc5)CC4)cc3F)ccnc2cc1OCCCN1CCOCC1 [Foretinib] (partner 0.25 µM)
The method in brief:
as §1

Compound in the assay “GW-2580 + Pictilisib”: COC1=CC=C(C=C1)COC2=C(C=C(C=C2)CC3=CN=C(N=C3N)N)OC [GW-2580] + CS(=O)(=O)N1CCN(Cc2cc3nc(-c4cccc5[nH]ncc45)nc(N4CCOCC4)c3s2)CC1 [Pictilisib] (partner 1 µM)
The method in brief:
as §1

Compound in the assay “GW-2580 + Decitabine”: COC1=CC=C(C=C1)COC2=C(C=C(C=C2)CC3=CN=C(N=C3N)N)OC [GW-2580] + Nc1ncn([C@H]2C[C@H](O)[C@@H](CO)O2)c(=O)n1 [Decitabine] (partner 2 µM)
In short, it runs like this: as §1

Compound in the assay “Fedratinib + Linsitinib”: Cc1cnc(Nc2ccc(OCCN3CCCC3)cc2)nc1Nc1cccc(S(=O)(=O)NC(C)(C)C)c1 [Fedratinib] + C[C@]1(O)C[C@@H](c2nc(-c3ccc4ccc(-c5ccccc5)nc4c3)c3c(N)nccn32)C1 [Linsitinib] (partner 1 µM)
The method in brief:
as §1

In the case of EMC-BAC-2, the relative viability came to 1.27 with GW-2580 + Luminespib (first compound 0.08 µM); 1.3 with GW-2580 + Luminespib (first compound 0.8 µM); 1.17 in the assay with GW-2580 + Luminespib (first compound 2.53 µM); 1.11 with GW-2580 + Luminespib (first compound 8 µM); 1.13 with GW-2580 + Foretinib (first compound 0.08 µM); 1.11 with GW-2580 + Foretinib (first compound 0.8 µM). Further, the relative viability is 1.04 with GW-2580 + Foretinib (first compound 2.53 µM); 0.865 with GW-2580 + Foretinib (first compound 8 µM); 0.577 with GW-2580 + Pictilisib (first compound 0.08 µM); 0.618 with GW-2580 + Pictilisib (first compound 0.8 µM); 0.452 with GW-2580 + Pictilisib (first compound 2.53 µM); 0.519 in the assay with GW-2580 + Pictilisib (first compound 8 µM). In addition, the relative viability with GW-2580 + Decitabine (first compound 0.08 µM) stood at 0.977; with GW-2580 + Decitabine (first compound 0.8 µM), 0.961; with GW-2580 + Decitabine (first compound 8 µM), 0.943; with Fedratinib + Linsitinib (first compound 0.1 µM), 0.802; with Fedratinib + Linsitinib (first compound 0.3162 µM), 0.832; in the assay with Fedratinib + Linsitinib (first compound 1 µM), 0.796.
For LK-2, the relative viability in the assay with GW-2580 + Luminespib (first compound 0.08 µM) turned out to be 0.16; with GW-2580 + Luminespib (first compound 0.8 µM) it was 0.173; with GW-2580 + Luminespib (first compound 2.53 µM), 0.238; with GW-2580 + Luminespib (first compound 8 µM) it was 0.175; with GW-2580 + Foretinib (first compound 0.08 µM), 1.62; with GW-2580 + Foretinib (first compound 0.8 µM), 1.45. Also, the relative viability with GW-2580 + Foretinib (first compound 2.53 µM) stood at 1.05; with GW-2580 + Foretinib (first compound 8 µM), 1.2; in the assay with GW-2580 + Pictilisib (first compound 0.08 µM), 0.476; with GW-2580 + Pictilisib (first compound 0.8 µM) it was 0.569; with GW-2580 + Pictilisib (first compound 2.53 µM) it was 0.428; with GW-2580 + Pictilisib (first compound 8 µM), 0.552. Besides, the relative viability is 0.227 in the assay with GW-2580 + Decitabine (first compound 0.08 µM); 0.3 in the assay with GW-2580 + Decitabine (first compound 0.8 µM); 0.253 with GW-2580 + Decitabine (first compound 2.53 µM); 0.334 in the assay with GW-2580 + Decitabine (first compound 8 µM); 0.349 with Fedratinib + Linsitinib (first compound 0.1 µM); 0.733 with Fedratinib + Linsitinib (first compound 0.3162 µM). In addition, in the assay with Fedratinib + Linsitinib (first compound 1 µM), the relative viability is 0.495.
On to NCI-H2126, for which the relative viability was determined as 0.96 in the assay with GW-2580 + Luminespib (first compound 0.08 µM); 1 with GW-2580 + Luminespib (first compound 0.8 µM); 0.907 with GW-2580 + Luminespib (first compound 2.53 µM); 0.825 with GW-2580 + Luminespib (first compound 8 µM); 1.32 in the assay with GW-2580 + Foretinib (first compound 0.08 µM); 1.13 in the assay with GW-2580 + Foretinib (first compound 0.8 µM). The relative viability with GW-2580 + Foretinib (first compound 2.53 µM) came to 0.925; in the assay with GW-2580 + Foretinib (first compound 8 µM), 1.28; with GW-2580 + Pictilisib (first compound 0.08 µM), 0.483; with GW-2580 + Pictilisib (first compound 0.8 µM) it was 0.497; with GW-2580 + Pictilisib (first compound 2.53 µM), 0.448; with GW-2580 + Pictilisib (first compound 8 µM), 0.452. Further, the relative viability in the assay with GW-2580 + Decitabine (first compound 0.08 µM) is 0.582; with GW-2580 + Decitabine (first compound 0.8 µM) it was 0.614; in the assay with GW-2580 + Decitabine (first compound 2.53 µM), 0.574; in the assay with GW-2580 + Decitabine (first compound 8 µM), 0.569; with Fedratinib + Linsitinib (first compound 0.1 µM), 0.689; with Fedratinib + Linsitinib (first compound 0.3162 µM), 0.732. Also, in the assay with Fedratinib + Linsitinib (first compound 1 µM), the relative viability was found to be 0.682.
For the cell line HCC-44, the relative viability stood at 1.14 with GW-2580 + Luminespib (first compound 0.08 µM); 0.945 with GW-2580 + Luminespib (first compound 0.8 µM); 0.988 with GW-2580 + Luminespib (first compound 2.53 µM); 1.15 in the assay with GW-2580 + Luminespib (first compound 8 µM); 0.688 with GW-2580 + Pictilisib (first compound 0.08 µM); 0.717 with GW-2580 + Pictilisib (first compound 0.8 µM). Moreover, the relative viability came to 0.582 in the assay with GW-2580 + Pictilisib (first compound 2.53 µM); 0.619 with GW-2580 + Pictilisib (first compound 8 µM); 0.97 with GW-2580 + Decitabine (first compound 0.08 µM); 0.912 with GW-2580 + Decitabine (first compound 0.8 µM); 0.974 in the assay with GW-2580 + Decitabine (first compound 2.53 µM); 1.08 with GW-2580 + Decitabine (first compound 8 µM). Besides, the results for the relative viability with Fedratinib + Linsitinib (first compound 0.1 µM), with Fedratinib + Linsitinib (first compound 0.3162 µM) and with Fedratinib + Linsitinib (first compound 1 µM) were 0.621, 0.652 and 0.667, respectively.
As to HCC-78, the relative viability in the assay with GW-2580 + Foretinib (first compound 0.08 µM) was found to be 0.524; with GW-2580 + Foretinib (first compound 0.8 µM) it was 0.605; with GW-2580 + Foretinib (first compound 2.53 µM), 0.513; with GW-2580 + Foretinib (first compound 8 µM), 0.497; in the assay with GW-2580 + Pictilisib (first compound 0.08 µM), 0.242; with GW-2580 + Pictilisib (first compound 0.8 µM) it was 0.245. The relative viability in the assay with GW-2580 + Pictilisib (first compound 2.53 µM) stood at 0.171; in the assay with GW-2580 + Pictilisib (first compound 8 µM), 0.227; with GW-2580 + Decitabine (first compound 0.08 µM) it was 0.699; with GW-2580 + Decitabine (first compound 0.8 µM) it was 0.786; with GW-2580 + Decitabine (first compound 2.53 µM) it was 0.634; in the assay with GW-2580 + Decitabine (first compound 8 µM), 0.698. For the same cell line, the figures for the relative viability in the assay with Fedratinib + Linsitinib (first compound 0.1 µM) and in the assay with Fedratinib + Linsitinib (first compound 1 µM) were 0.427 and 0.49, respectively.
Turning to NCI-H1299, the relative viability in the assay with GW-2580 + Foretinib (first compound 0.08 µM) was found to be 1.17; in the assay with GW-2580 + Foretinib (first compound 0.8 µM), 1.09; with GW-2580 + Foretinib (first compound 2.53 µM) it was 0.981; in the assay with GW-2580 + Foretinib (first compound 8 µM) it was 0.971; with GW-2580 + Pictilisib (first compound 0.08 µM), 0.776; with GW-2580 + Pictilisib (first compound 0.8 µM) it was 0.736. Further, the relative viability in the assay with GW-2580 + Pictilisib (first compound 2.53 µM) came out at 0.773; in the assay with GW-2580 + Pictilisib (first compound 8 µM) it was 0.748; in the assay with Fedratinib + Linsitinib (first compound 0.1 µM) it was 0.946; in the assay with Fedratinib + Linsitinib (first compound 0.3162 µM), 0.96; in the assay with Fedratinib + Linsitinib (first compound 1 µM) it was 0.994.
As for NCI-H1650, the relative viability was found to be 0.195 in the assay with GW-2580 + Luminespib (first compound 0.08 µM); 0.195 in the assay with GW-2580 + Luminespib (first compound 0.8 µM); 0.197 in the assay with GW-2580 + Luminespib (first compound 2.53 µM); 0.182 with GW-2580 + Luminespib (first compound 8 µM); 1.29 with GW-2580 + Foretinib (first compound 0.08 µM); 1.43 with GW-2580 + Foretinib (first compound 0.8 µM). The relative viability with GW-2580 + Foretinib (first compound 2.53 µM) is 1.19; with GW-2580 + Foretinib (first compound 8 µM) it was 1.05; with GW-2580 + Pictilisib (first compound 0.08 µM), 0.644; with GW-2580 + Pictilisib (first compound 0.8 µM), 0.564; with GW-2580 + Pictilisib (first compound 2.53 µM), 0.454; with GW-2580 + Pictilisib (first compound 8 µM), 0.601. Further, the relative viability was 0.502 in the assay with GW-2580 + Decitabine (first compound 0.08 µM), 0.396 in the assay with GW-2580 + Decitabine (first compound 0.8 µM), 0.468 with GW-2580 + Decitabine (first compound 2.53 µM) and 0.372 with GW-2580 + Decitabine (first compound 8 µM).
For the cell line ChaGo-K-1, the relative viability in the assay with GW-2580 + Luminespib (first compound 0.08 µM) was found to be 0.757; with GW-2580 + Luminespib (first compound 0.8 µM) it was 0.677; in the assay with GW-2580 + Luminespib (first compound 2.53 µM), 0.501; with GW-2580 + Luminespib (first compound 8 µM) it was 0.562; with GW-2580 + Foretinib (first compound 0.08 µM), 0.994; with GW-2580 + Foretinib (first compound 0.8 µM) it was 0.965. In addition, the relative viability in the assay with GW-2580 + Foretinib (first compound 2.53 µM) came out at 0.924; with GW-2580 + Foretinib (first compound 8 µM), 0.881; with GW-2580 + Pictilisib (first compound 0.08 µM), 0.735; with GW-2580 + Pictilisib (first compound 0.8 µM), 1.15; in the assay with GW-2580 + Pictilisib (first compound 2.53 µM), 0.526; with GW-2580 + Pictilisib (first compound 8 µM), 0.655. The relative viability in the assay with GW-2580 + Decitabine (first compound 0.08 µM) came out at 0.561; with GW-2580 + Decitabine (first compound 0.8 µM), 0.515; with GW-2580 + Decitabine (first compound 2.53 µM), 0.495; with GW-2580 + Decitabine (first compound 8 µM) it was 0.519.
